Source: patent US20260265298A1, “PEPTIDE SUBSTRATES AND INHIBITORS OF CATHEPSIN B” (The Regents of the University of California, priority 2023, published 2026)

Assays:
[1] = test system: mouse BV2 microglia cells; assay: Cell death (LDH release) induced by low nutrient stress in microglia cells; format: cell-based; details: 2 μM; 0% FBS for 24 hours
Procedure: (§1) Regulation of cathepsin B activity during cell death induced by low nutrient stress in microglia cells. […] Microglia cells (mouse BV2 cells) were treated with low nutrient culture media (0% fetal bovine serum, FBS) compared to a normal nutrient condition (10% FSB) for 24 hours. The low nutrient stress condition induced cell death monitored by LDH (lactate dehydrogenase) released into the culture media. The stress-induced increase in cell death was reduced by the inhibitor Z-Arg-Lys-AOMK (2 μM), a selective inhibitor of cathepsin B. (n=6, mean+sem, *p<0.05, student's t-test). […] Cathepsin B activity was elevated in cytosol isolated from microglia cells after treatment with low nutrient stress (0% FBS) for 24 hours. Cathepsin B activity was measured with the specific substrate Z-Nle-Lys-Arg-AMC ([…] in assay). Furthermore, the increase in cytosolic cathepsin B activity was blocked by the cathepsin B inhibitor Z-Arg-Lys-AOMK (2 μM) during low nutrient stress. (n=6, mean+sem, *p<0.05, student's t-test).

[2] = target: T1, cathepsin B (Mus musculus, UniProt P10605); assay: Cytosolic cathepsin B activity in microglia cells during low nutrient stress; format: cell-based; details: 2 μM; 0% FBS for 24 hours; substrate Z-Nle-Lys-Arg-AMC
T1 construct: from tissue; host or cells: mouse ipsilateral brain cortex (homogenate and cytosol) after controlled cortical impact TBI
Procedure: as §1

[3] = target: T1, cathepsin B; assay: Cathepsin B activity in ipsilateral brain cortex of TBI mice; format: in vivo; details: 20 mg/kg, ip; day 6 after TBI
Procedure: (§2) FIGS. 13a-13e show traumatic brain injury (TBI) in mice results in elevated brain cathepsin B activity, involved in motor deficit. […] Mice were subjected to the controlled cortical impact (CCI) model of TBI. Motor function was assessed by the rotarod assay on days 1, 3, and 7 after TBI. Control sham mice received surgery of the scalp but no TBI. Rotarod data are shown as mean+SD (n=5/group, mean+sem, *p<0.05, student's t-test). […] The TBI injury was conducted on the ipsilateral side of the brain cortex, shown by the tissue lesion at the site of TBI impact. […] Cathepsin B activity in homogenate of mouse brain cortex was measured with the Z-Nle-Lys-Arg-AMC substrate on day 6 after TBI. These TBI mice were treated with vehicle or Z-Arg-Lys-AOMK inhibitor (20 mg/kg, ip). (n=6 per group for vehicle-treated, and n=4 per group for treatment with inhibitor Z-Arg-Lys-AOMK; mean+sem, p<0.05, student's t-test).
Cytosol from brain homogenate (obtained on day 6 after TBI) was isolated by differential density centrifugation. Cathepsin B in the cytosol from brain cortex was measured by the substrate Z-Nle-Lys-Arg-AMC substrate. (n=6 per group for vehicle treated, and n=4 per group for treatment with inhibitor Z-Arg-Lys-AOMK: mean+sem, p<0.05, student's t-test).

[4] = test system: TBI mice; assay: Rotarod motor function in controlled cortical impact (CCI) model of TBI; format: in vivo, mouse; details: 20 mg/kg, ip, one day before TBI, day of TBI and day 1 after; measured day 1 after TBI
Procedure: as §2
TBI mice were treated with Z-Arg-Lys-AOMK inhibitor (20 mg/kg, ip) one day before TBI, on the day of TBI, and on day 1 after TBI. Motor function was measured on day 1 after TBI. (n=6 per group for vehicle-treated, and n=4 per group for treatment with inhibitor Z-Arg-Lys-AOMK; mean+sem, p<0.05, student's t-test).

T1 sequence (P10605 80-333): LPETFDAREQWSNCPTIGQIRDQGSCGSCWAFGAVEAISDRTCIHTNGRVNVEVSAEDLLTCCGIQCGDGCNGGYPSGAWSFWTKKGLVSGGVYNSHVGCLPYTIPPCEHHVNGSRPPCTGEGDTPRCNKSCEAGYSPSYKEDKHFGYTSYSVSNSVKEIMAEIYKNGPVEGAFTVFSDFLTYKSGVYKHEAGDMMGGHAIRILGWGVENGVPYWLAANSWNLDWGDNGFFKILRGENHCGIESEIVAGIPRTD

increase in cytosolic cathepsin B activity [2]: blocked
cathepsin B activity in brain cortex cytosol [3]: inhibition of cathepsin B activity
cathepsin B activity in brain cortex homogenate [3]: inhibition of cathepsin B activity
Substance: Z-Arg-Lys-AOMK
stress-induced increase in cell death (LDH released into the culture media) [1]: reduced
motor deficit (rotarod) [4]: improved motor deficit
